According to US11278561B2, “Combination treatment for hematological cancers” (Geron Corporation, priority 2016, dated 2022):

Key:
Format in all cases: cell-based, human
[1] = system: hTERT; test: hTERT transcription levels by RT-qPCR in MOLM-13; settings: MOLM-13, 96 hours; 50 μM imetelstat sodium and/or 20 nM ABT-199
Experimental: Samples from cell experiments (and single agent controls) were collected for molecular analyses to assess combination effects contributing to potential mechanisms of action. […] Nucleic acids were purified by first lysing cells with 350 μL of RLT Buffer (Qiagen catalog #1030963) supplemented with 2-mercaptoethanol (Sigma catalog #63689-100ML-F). RNA was purified with the AllPrep RNA/DNA Mini Kit (Qiagen catalog #80204) and reverse transcribed to cDNA using a High Capacity cDNA kit (ThermoFisher catalog #4368814) and pre-amplified prior to analysis with TaqMan PreAmp Master Mix (ThermoFisher catalog #4384557B). Products were analyzed using an in-house developed Taq-Man RT-qPCR assay to measure hTERT transcription levels (TaqMan Universal PCR Master Mix—ThermoFisher catalog #4304437; primer and probe sequences below) using a ViiA7 Real-Time PCR system from ThermoFisher: […]

[2] = system: CD45+ leukocytes from AML patient PBMCs; test: ex vivo viability of AML patient PBMCs, CD45+ leukocytes; settings: 16-hour and 40-hour exposure; imetelstat sodium 25, 50 μM and/or venetoclax 20, 100 nM; mean of four patients
Experimental: AML cell lines (see Example 1) and AML patient peripheral blood mononuclear cell (“PBMC”) samples, which were obtained from AML patient whole blood after Ficoll purification, were treated with imetelstat sodium or venetoclax alone, or in combination, and viable and apoptotic populations of cells were evaluated by flow cytometry. Telomerase activity, hTERT expression and mitochondrial dysfunction were investigated for mechanism of action. […] Apoptosis was measured via flow cytometry staining for Annexin V and propidium iodide. Unstained (i.e. double negative) cells constitute viable cells remaining after treatment.
Specifically, whole blood from AML patients (n=4) was purified using Ficoll-Paque Plus (GE Healthcare catalog #17-1440-03) to purify PBMCs. […]
After 16- and 40-hours of treatment, cells were measured for healthy, early apoptotic and apoptotic populations with an Annexin V (interior cell membrane stain) plus propidium iodide (PI, DNA binding dye) flow cytometry assay kit (BioLegend catalog #640914) as described in the Example 1. […] Means and standard deviations were determined for the four patients for CD45^+ (leukocytes) and CD45^+/CD34^+ (leukemic stem cells) populations.

[3] = system: telomerase; test: telomerase activity by qPCR TRAP in MOLM-13 lysates; settings: 50 μM imetelstat sodium or 20 nM ABT-199
Experimental: Samples from the previous section for protein analysis were collected as cell pellets by centrifugation at 5 minutes for 1500K for lyses and protein extraction. Protein lysates were analyzed by utilizing a modified method combined from two primary sources (Hou, et al. (2001) 43(3) 519-524 and Nature Protocols (2006) 1 (3) 1583-1590). Lysates were generated by adding 80 μL of a 10 mM Tris-EDTA, 1% NP-40, 10% Glycerol, 150 mM NaCl, 1 mM MgCl2, 250 μM Sodium Deoxycholate, 100 μM AEBSF, 5 mM 2-mercaptoethanol buffer and incubating on ice for 30 minutes. Lysates were centrifuged for 15 minutes at max speed and at 4° C. to pellet cellular debris. Protein yield from clarified lysates were quantified using a BCA assay (ThermoFisher catalog 23252) and subjected to a qPCR TRAP-based assay to determine relative telomerase activity (Power SYBR Green PCR Master Mix—ThermoFisher #4367659) using a ViiA7 Real-Time PCR system from ThermoFisher. In this assay, protein lysates are exposed to synthetic oligonucleotides mimicking telomere sequences in the presence of excess dNTPs and SYBR green dye. The greater the activity of telomerase, the greater extension of the synthetic primers, and therefore greater staining of nucleic acid and signal generated by the SYBR dye. This signal is compared to a standard curve of control protein lysate to determine the relative telomerase activity between samples.

CC1(C)CCC(CN2CCN(c3ccc(C(=O)NS(=O)(=O)c4ccc(NCC5CCOCC5)c([N+](=O)[O-])c4)c(Oc4cnc5[nH]ccc5c4)c3)CC2)=C(c2ccc(Cl)cc2)C1 [ABT-199, 4-[4-[[2-(4-chlorophenyl)-4,4-dimethylcyclohexen-1-yl]methyl]piperazin-1-yl]-N-[3-nitro-4-(oxan-4-ylmethylamino)phenyl]sulfonyl-2-(1H-pyrrolo [2,3-b]pyridin-5-yloxy)benzamide]
hTERT RNA expression level, percentage of untreated controls [1]: ~69% | viability of CD45+ leukocytes derived from AML patients [2]: only moderately impacted | telomerase activity as compared to control ([3]; MOLM-13, 48 hours): no effect | telomerase activity as compared to control ([3]; MOLM-13, 96 hours): ~70%
